Laboratory results as given in patent US8859496B2, “Pharmaceutical composition using connective-tissue growth factor” (Postech Academy-Industry Foundation, priority 2010, dated 2014).
No end group written: not given here.

Legend:
HUVECs [1] = assay: HUVEC proliferation assay ([3H]-thymidine); assay type: cell-based, human
Method: For proliferation assay, HUVECs were plate cultured in a gelatin-coated 24-well culture dish at 2×10^4 cells/well and allowed to adhere overnight. 4 hours after serum was depleted, the cells were treated with various mitogen (CTGF linker polypeptide, CTGF) for 48 hours. [^3H]-thymidine (1 μCi, Amersham International) was added to each well 6 hours before final culture. The inserted [^3H]-thymidine was extracted in 0.2 M NaOH and 0.1% SDS solution at 37° C. for 1 hour. Radioactivity was measured using liquid scintillation counter (Beckmann Instruments), which was repeated three times, and the result was indicated by mean±standard deviation per minute.
First, 20 ng/ml of VEGF-A was administered to HUVECs, the degree of cell proliferation, cell migration, or tube formation was confirmed by the <Experiment method 9>, and the results are shown in FIGS. 22 to 24. At this time, FPRL1 antagonist WRW4 was additionally added.

HUVECs [2] = assay: ERK phosphorylation in HUVECs (immunoblot); assay type: cell-based, human
Method: Vector/RBL cells, FPR/RBL cells, FPRL1/RBL cells, and HUVECs were cultured to confluence, and serum-starved. The stimulated cells (1×10^5 cells) were washed with PBS twice, dissolved in 1 ml of sample buffer (50 mM Tris-HCl, 100 mM NaCl, 0.1% SDS, 1% Nonidet P-40, 50 mM NaF, 1 mM Na3VO4, 1 μg/ml aprotinin, 1 μg/ml pepstatin, and 1 μg/ml leupeptin), heated at 95° C. for 30 seconds, separated with SDS-PAGE, and then, transferred to a nitrocellulose film. Immunoblot was conducted using anti-phospho-ERK (extracellular signal regulated kinase)1/2 (Thr^202/Tyr^204)(Cell Signaling Technology, Beverly, Mass., USA), anti-ERK1/2 (Cell Signaling Technology, Beverly, Mass., USA), anti-CTGF (Abcam, Cambridge, Mass., USA), anti-Actin (Sigma, St. Louis, Mo., USA), or anti-Flag (Sigma, St. Louis, Mo., USA) antibody, and then, the film was visualized with a chemiluminescence substrate (Amersham Pharmacia).
Meanwhile, HUVECs were treated with the CTGF linker polypeptide or rhCTGF at various concentrations for 5 minutes, cell lysate was obtained, and then, immuboblot was conducted with anti-phospho ERK1/2 antibody, and the results are shown in FIG. 14.

[3] = tested on: CAM (chorioallantoic membrane); assay: In vivo CAM (chorioallantoic membrane) angiogenesis analysis
Method: In vivo CAM analysis was conducted according to a previously known method (Lee, M.-S. et al. Angiogenic Activity of Pyruvic Acid in in Vivo and in Vitro Angiogenesis Models. Cancer Res 61, 3290-3293, 2001).
Fertilized eggs were cultured in an egg breeder set to fixed moisture at 37° C. 3 days after the culture, to take off expressed CAM from the shell, about 2 ml of egg albumin was taken out with 18-gague subcutaneous needle. After additionally culturing for 6 days, thermanox coverslips (Nunc) containing the sample was dried in the air, and applied to the CAM surface to test the activity of angiogenesis by linker polypeptide or rhCTGF. After 3 days, 1-2 ml of 10% (w/v) Intralipose was injected into chorioallantois, and observed with microscope.
And, it was confirmed by the <Experiment method 10> that in case HUVECs are treated with FPRL1 antagonist (10 ug/CAM) in vivo, angiogenesis activity of VEGF-A (25 ng/CAM) is inhibited, and the results are shown in FIG. 28.

FPRL1 = biological target: T1, FPRL1 (Homo sapiens, UniProt P25090); assay: Intracellular Ca2+ measurement (fluo-3-AM) in FPRL1/RBL, vector/RBL or FPR/RBL cells; assay type: cell-based
T1 construct: expressed in transfected cells; host or cells: rat basophil leukemia RBL-2H3 cells, kept under G418
T1 sequence (P25090 1-351): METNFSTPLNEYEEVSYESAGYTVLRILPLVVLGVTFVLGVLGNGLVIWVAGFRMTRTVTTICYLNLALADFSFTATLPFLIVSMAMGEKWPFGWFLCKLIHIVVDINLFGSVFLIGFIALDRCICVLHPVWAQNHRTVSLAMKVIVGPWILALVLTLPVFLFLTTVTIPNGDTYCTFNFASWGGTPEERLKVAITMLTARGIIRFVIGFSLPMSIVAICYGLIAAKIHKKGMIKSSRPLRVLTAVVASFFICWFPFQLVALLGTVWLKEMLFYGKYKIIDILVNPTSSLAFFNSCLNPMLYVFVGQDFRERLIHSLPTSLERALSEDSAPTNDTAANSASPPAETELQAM
Method: FPRL1/RBL, vector/RBL or FPR/RBL cells were cultured in a fluo-3-AM working solution containing 0.03% (w/v) plutonic F-127 (Molecular Probes) at 37° C. for 1 hour so that the final concentration of fluo-3-AM became 20 uM/L. After the culturing, fluo-3-AM fluorescence occurred at 488 nm with high-power Ar^+ laser in the cells, and the emission band was measured at 530 nm with photomultiplier. Fluorescence signal was detected using confocal laser scanning system (LSM 510 Meta; Carl Zeiss, Jena, Germany) equipped with Nikon E-600 Eclipse microscope. Fluorescence intensities before adding CTGF (F0) and after adding CTGF (F) were measured. Change in the intracelullar Ca^2+ concentration [Ca^2+]i was indicated by F/F0 ratio. From each cell, 50 to 120 images were scanned.
Since activation of FPRL1 increases intracellular Ca^2+ concentration, the inventors confirmed whether CTGF linker polypeptide activates FPRL1 to finally increase intracellular Ca^2+ concentration by the <Experiment method 8>, and the results are shown in FIG. 12.

| Substance | effect of antagonist on HUVEC proliferation by VEGF-A (HUVECs [1]; VEGF-A 20 ng/ml plus WRW4) | effect of antagonist on ERK phosphorylation in HUVECs (HUVECs [2]; WRW4 10 uM) | effect of antagonist on CAM angiogenesis induced by VEGF-A ([3]; FPRL1 antagonist 10 ug/CAM, VEGF-A 25 ng/CAM) | effect of antagonist on CAM blood vessel formation induced by CTGF linker polypeptide ([3]; WRW4 10 uM) | effect of antagonist on intracellular Ca2+ increase by CTGF linker polypeptide (FPRL1; WRW4 10 uM) | proliferation of HUVECs (HUVECs [1]; 48 hours, [3H]-thymidine) | ERK phosphorylation in HUVECs (HUVECs [2]; various concentrations, 5 minutes) | angiogenesis in vivo (CAM) ([3]; sample on coverslip on CAM, 3 days) | Ca2+ concentration, concentration dependence (FPRL1; FPRL1/RBL cells) | Ca2+ increasing activity compared to rhCTGF and WKYMVm (FPRL1; FPRL1/RBL cells) | Ca2+ concentration increase, cell specificity (FPRL1; confocal microscope, FPRL1/RBL, vector/RBL or FPR/RBL cells) |
| --- | --- | --- | --- | --- | --- | --- | --- | --- | --- | --- | --- |
| WRWWWW (FPRL1 antagonist) [WRW4] | did not exhibit statistically significant inhibition of HUVECs proliferation by VEGF-A | ERK phosphorylation is inhibited | strongly inhibits angiogenesis induced by VEGF-A | the blood vessel formation is not induced | the degree of intracellular Ca^2+ concentration increase by CTGF linker polypeptide decreases | – | – | – | – | – | – |
| EWVCDEPKDQTVVGPALAAYRLEDTFGPDPTMIRANCLV (EWVCDEPKDQTVVGPALAAYRLEDTFGPDPTMIRANCLV-NH2; cysteine pairing not given here) [CTGF linker polypeptide] | – | – | – | – | – | induces proliferation of HUVECs in a concentration-dependent manner, the degree is not statistically significant | ERK phosphorylation is effectively induced | very strongly induces angiogenesis also in vivo in a concentration-dependent manner | increases dependently upon the concentration of CTGF linker polypeptide | more effective than rhCTGF and is similar to positive control of FPRL1 agonist WKYMVm | increased only in FPRL1/RBL cells |
